Laboratory results taken from patent US20160287575A1, “COMPOSITIONS AND METHODS FOR THE TREATMENT OF DISEASES INVOLVING HIPPO PATHWAY” (DUKE UNIVERSITY, priority 2013, published 2016).
Residues, ends and D or L forms follow the SMILES beside them. *: point of attachment. Cbz = O=C(OCc1ccccc1)*

How the values were obtained:
YAP = assay: pharmacological block of YAP protein turnover in RASSF4-deficient aRMS cells; type: cell-based, human; details: RASSF4-deficient aRMS cells versus control; data not shown
Excerpt: Finally, we examined whether there was a connection between RASSF4 and YAP. […] Since YAP protein is turned over by sequential phosphorylation and ubiquitin-mediated degradation (Zhao et al., Genes Dev. 24:72-85 (2010)), we attempted to pharmacologically block YAP protein turnover in RASSF4-deficient cells using MG132 or IC 261. […] When examined at the transcriptional level, we observed a decreasing trend in YAP mRNA levels that only reached significance with one RASSF4 shRNA. Since RASSF4 loss of function was causing growth arrest and senescence, we reasoned that these effects on YAP could be caused by the growth arrest itself and RASSF4 loss. […] Instead, cells expressing YAP S127A and RASSF4 shRNA had more pronounced mitotic defects (data not shown). Therefore, while we cannot identify a clear connection between RASSF4 and YAP in aRMS at this time, Hippo signaling is clearly dysregulated at multiple levels in RMS through RASSF4-MST1 and YAP-mediated mechanisms (FIG. 7F).

LATS1 = assay: nocodazole treatment, LATS1 phosphorylation by immunoblot; type: cell-based, human; details: nocodazole-treated HSMM^PF+H+M cells, control and RASSF4-knockdown
MST1 = biological target: T1, MST1 (Homo sapiens, UniProt Q13043, K59R); assay: staurosporine stimulation, MST1 phosphorylation by immunoblot; type: cell-based; details: MST1 K59R expressing HSMM^PF+H+M cells, 1 μM STS, 1 hour
T1 construct: expressed in transfected cells; host or cells: HSMM^PF+H+M cells (human skeletal muscle myoblasts expressing PAX3-FOXO1, hTERT, MycN), with or without RASSF4 shRNA
T1 sequence (Q13043 1-487 K59R): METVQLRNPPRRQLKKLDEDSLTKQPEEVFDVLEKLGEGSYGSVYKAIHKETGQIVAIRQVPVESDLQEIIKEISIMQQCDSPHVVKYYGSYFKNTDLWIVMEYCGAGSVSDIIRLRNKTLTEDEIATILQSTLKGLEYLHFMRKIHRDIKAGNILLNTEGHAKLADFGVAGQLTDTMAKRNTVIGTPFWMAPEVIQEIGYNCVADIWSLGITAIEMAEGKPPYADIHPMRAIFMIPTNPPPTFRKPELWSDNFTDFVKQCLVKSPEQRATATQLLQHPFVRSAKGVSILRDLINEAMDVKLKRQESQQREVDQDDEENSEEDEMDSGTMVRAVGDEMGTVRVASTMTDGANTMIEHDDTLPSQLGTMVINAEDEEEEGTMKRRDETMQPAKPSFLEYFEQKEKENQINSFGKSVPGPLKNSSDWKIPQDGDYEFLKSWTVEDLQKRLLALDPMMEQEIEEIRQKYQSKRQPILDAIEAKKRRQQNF
Description: (A) RASSF4 deficiency causes MST1 phosphorylation and cleavage upon staurosporine (STS) treatment. Cells expressing FLAG-MST1 K59R were treated for 1 hour with 1 μM STS and examined for phosphor-MST1/2 and total MST1 by immunoblot. (B) Upon 1 hour treatment with 1 μM STS, RASSF4-deficient aRMS cells display higher cleaved caspase 3 as measured by immunoblot. In A and B, actin was used as a loading control.
However, even without the ability to activate downstream signaling, MST1 K59R can still be regulated like wild-type MST1 through phosphorylation by upstream kinases and caspase cleavage. Since endogenous phospho-MST1 levels and MST1 cleavage products were in low abundance in aRMS cells and were difficult to detect, we used cells expressing MST1K59R to boost MST1 expression, while maintaining cell viability. We stimulated cells with staurosporine (STS), a well-established activator of MST1, and examined the role of RASSF4 in MST1 phosphorylation and cleavage (Graves et al., J. Biol. Chem 276:14909-14915 (2001)). […] This is the reported size of the MST1 cleavage fragment believed to be regulated by caspases (Graves et al. (2001); Cheung et al., Cell 113:507-517 (2003); Praskova et al., Biochem J. 381:453-462 (2004)). […]

[1] = biological target: Yki/YAP and transcriptional coactivator TEAD/TEF transcription factors (Homo sapiens, UniProt P46937); details: identified in a screen; cited from earlier work
Chain of Yki/YAP and transcriptional coactivator TEAD/TEF transcription factors (P46937 whole entry): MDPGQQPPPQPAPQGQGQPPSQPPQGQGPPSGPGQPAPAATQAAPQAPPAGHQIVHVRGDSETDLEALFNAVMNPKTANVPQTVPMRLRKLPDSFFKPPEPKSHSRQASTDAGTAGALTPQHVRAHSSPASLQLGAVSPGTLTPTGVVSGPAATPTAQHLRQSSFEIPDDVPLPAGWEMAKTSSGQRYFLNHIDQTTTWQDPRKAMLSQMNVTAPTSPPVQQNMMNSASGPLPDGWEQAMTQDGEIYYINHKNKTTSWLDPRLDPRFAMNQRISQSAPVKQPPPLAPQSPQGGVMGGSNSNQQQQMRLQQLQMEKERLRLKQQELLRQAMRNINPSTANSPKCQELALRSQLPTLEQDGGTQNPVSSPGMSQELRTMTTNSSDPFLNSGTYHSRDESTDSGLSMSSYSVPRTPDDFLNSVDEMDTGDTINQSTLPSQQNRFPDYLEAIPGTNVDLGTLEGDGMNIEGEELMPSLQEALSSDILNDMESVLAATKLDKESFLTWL

Compound: COc1cc(OC)c(C=C2C(O)=Nc3ccccc32)c(OC)c1 [IC 261]
- phospho-YAP and total YAP levels (YAP): still lower

Compound: CC(C)C[C@@H](C=O)NC(=O)[C@H](CC(C)C)NC(=O)[C@H](CC(C)C)NC(=O)OCc1ccccc1 [MG132] (Cbz-Leu-Leu-Leu-aldehyde)
- phospho-YAP and total YAP levels (YAP): still lower

Compound: COC(=O)Nc1nc2ccc(C(=O)c3cccs3)cc2[nH]1 [nocodazole]
- phosphorylated LATS1 (LATS1): reduction in phosphorylated LATS1

Compound: CN[C@@H]1C[C@H]2O[C@@](C)([C@@H]1OC)n1c3ccccc3c3c4c(c5c6ccccc6n2c5c31)C(=O)NC4 [staurosporine]
- phosphorylation of full-length MST1 (MST1): increased phosphorylation of full-length MST1

Compound: verteporfin
- disruption of physical interactions between Yki/YAP and TEAD/TEF [1]: capable of disrupting physical interactions
